Test results reported in patent US9688669B2, “Oxazolidinones as modulators of mGluR5” (BRISTOL-MYERS SQUIBB COMPANY, priority 2013, dated 2017).

Molecular target: human mGluR5A (Homo sapiens (Human), UniProt P41594)
Assay: mGluR5 FLIPR Assay
Assay type: cell-based
Settings: positive modulator activity, HEK293 (ZF) cells with human mGluR5A and rat GLAST, Ca++ response to ~EC10 l-glutamate
Procedure: HEK293 (ZF) cells stably transfected with human mGluR5A (pIRES neo) and the rat glutamate-aspartate transporter (GLAST; pIRES puro) are grown in a monolayer culture at 37° C. in 5% CO2 and fed with Minimum Essential Medium (MEM) supplemented with 10% dialysed fetal bovine serum. […] Plates are incubated in dye at 37° C. in 5% CO2 for 60 minutes prior to delivery of test compounds in assay buffer. Test compounds are incubated with cells in the presence of dye for 10 minutes prior to being read on the FLIPR platform (Molecular Devices). A Ca^++ signal is induced in the assay plates via the delivery of an ˜EC10 concentration of the endogenous agonist 1-glutamate; images are acquired at 1 Hz for 100 seconds post-delivery of agonist stimulus. Positive modulator activity (i.e. the ability of test compounds to increase the Ca^++ response to a sub-maximal concentration of agonist) is normalized to a saturating concentration of a known mGluR5 PAM run in each assay plate. An EC50 concentration of test compounds is derived from 4-parameter logistic curve fits of transformed fluoresence data via proprietary software suite.

human mGluR5A, sequence (P41594 other isoform, or with tags, fused parts or gaps): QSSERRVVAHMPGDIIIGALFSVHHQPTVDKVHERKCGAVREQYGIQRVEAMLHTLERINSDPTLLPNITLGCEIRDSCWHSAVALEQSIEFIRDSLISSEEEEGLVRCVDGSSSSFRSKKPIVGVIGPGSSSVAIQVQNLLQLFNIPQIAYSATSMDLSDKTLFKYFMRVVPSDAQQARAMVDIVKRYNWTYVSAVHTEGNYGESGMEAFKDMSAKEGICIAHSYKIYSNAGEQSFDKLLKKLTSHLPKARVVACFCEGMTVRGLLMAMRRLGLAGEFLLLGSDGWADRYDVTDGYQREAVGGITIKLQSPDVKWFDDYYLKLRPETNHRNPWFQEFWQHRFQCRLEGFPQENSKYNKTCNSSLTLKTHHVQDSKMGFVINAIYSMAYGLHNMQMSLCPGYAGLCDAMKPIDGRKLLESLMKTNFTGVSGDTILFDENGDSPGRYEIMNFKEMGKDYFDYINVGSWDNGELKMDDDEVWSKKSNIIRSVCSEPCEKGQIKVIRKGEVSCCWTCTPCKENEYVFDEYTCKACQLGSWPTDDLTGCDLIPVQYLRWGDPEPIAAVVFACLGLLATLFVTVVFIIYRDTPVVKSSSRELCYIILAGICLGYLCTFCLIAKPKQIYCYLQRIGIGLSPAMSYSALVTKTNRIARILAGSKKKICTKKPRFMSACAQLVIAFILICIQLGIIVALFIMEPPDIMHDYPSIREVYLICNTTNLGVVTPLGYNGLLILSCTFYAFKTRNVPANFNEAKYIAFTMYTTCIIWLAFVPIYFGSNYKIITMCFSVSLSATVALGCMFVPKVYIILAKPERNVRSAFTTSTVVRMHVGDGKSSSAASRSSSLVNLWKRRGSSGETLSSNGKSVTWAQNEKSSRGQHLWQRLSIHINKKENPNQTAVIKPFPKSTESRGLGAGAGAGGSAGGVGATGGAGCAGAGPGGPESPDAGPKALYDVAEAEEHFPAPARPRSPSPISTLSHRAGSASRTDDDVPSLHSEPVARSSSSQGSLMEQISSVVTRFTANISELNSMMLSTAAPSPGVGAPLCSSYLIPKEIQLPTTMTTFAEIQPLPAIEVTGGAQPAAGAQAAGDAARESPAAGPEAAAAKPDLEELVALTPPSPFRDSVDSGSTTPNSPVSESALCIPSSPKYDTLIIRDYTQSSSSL

| Compound | EC50 [nM] |
| --- | --- |
| COc1cccc([C@H]2OC(=O)N[C@@H]2c2cccc(C#CC3CC(F)(F)C3)c2)c1 [Example 116, (4R,5R)-4-(3-((3,3-Difluorocyclobutyl)ethynyl)phenyl)-5-(3-methoxyphenyl)oxazolidin-2-one] | > 1610 |
| CCCC(O)C#Cc1cncc([C@H]2NC(=O)O[C@@H]2c2cccc(F)c2)c1 (some centres unmarked) [Example 12] | 15.4 |
| CC(C)CCC#Cc1cncc([C@H]2NC(=O)O[C@@H]2c2cccc(F)c2)c1 [Example 5] | 4.7 |
| O=C1N[C@H](c2cncc(C#CC3(F)CCCCC3)c2)[C@@H](c2cccc(F)c2)O1 [Example 91, (4R,5R)-4-(5-((1-Fluorocyclohexyl)ethynyl)pyridin-3-yl)-5-(3-fluorophenyl)oxazolidin-2-one] | 96.2 |
| CC1CC1C(O)C#Cc1cncc([C@H]2NC(=O)O[C@@H]2c2cccc(F)c2)c1 (some centres unmarked) [Example 75] | 129 |
| O=C1N[C@H](c2cncc(C#CC3CCOCC3)c2)[C@@H](c2cc(F)ccc2F)O1 [Example 100, (4R,5R)-5-(2,5-Difluorophenyl)-4-(5-((tetrahydro-2H-pyran-4-yl)ethynyl)pyridin-3-yl)oxazolidin-2-one] | 282 |
| O=C1N[C@H](c2cccc(C#CC3CC(F)(F)C3)n2)[C@@H](c2ccccc2)O1 [Example 113, (4R,5R)-4-(6-((3,3-Difluorocyclobutyl)ethynyl)pyridin-2-yl)-5-phenyloxazolidin-2-one] | > 3230 |
| O=C1N[C@H](c2cncc(C#CC3CCC(F)(F)CC3)c2)[C@@H](c2cccc(F)c2)O1 [Example 92, (4R,5R)-4-(5-((4,4-Difluorocyclohexyl)ethynyl)pyridin-3-yl)-5-(3-fluorophenyl)oxazolidin-2-one] | 50.9 |
| CCC(O)CC#Cc1cncc([C@H]2NC(=O)O[C@@H]2c2cccc(F)c2)c1 (single isomer, unassigned) [Example 19] | 27.6 |
| O=C1N[C@H](c2cncc(C#CCC3CC3(F)F)c2)[C@@H](c2cccc(F)c2)O1 (some centres unmarked) [Example 29] | 77.5 |
| Cc1cn(CC#Cc2cncc([C@H]3NC(=O)O[C@@H]3c3cccc(F)c3)c2)cn1 [Example 71, (4R,5R)-5-(3-Fluorophenyl)-4-(5-(3-(4-methyl-M-imidazol-1-yl)prop-1-yn-1-yl)pyridin-3-yl)oxazolidin-2-one] | > 3230 |
| O=C1N[C@H](c2cncc(C#CCn3cccn3)c2)[C@@H](c2cccc(F)c2)O1 [Example 62] | 10.9 |
| O=C1N[C@H](c2cncc(C#CCn3ccnc3)c2)[C@@H](c2cccc(F)c2)O1 [Example 33] | 134 |
| O=C1N[C@H](c2cncc(C#CCC3CC3)c2)[C@@H](c2cccc(F)c2)O1 [Example 4] | 3.6 |
| CCC(O)CC#Cc1cncc([C@H]2NC(=O)O[C@@H]2c2cccc(F)c2)c1 (single isomer, unassigned) [Example 20] | 60.8 |
| CC(=O)NCC#Cc1cncc([C@H]2NC(=O)O[C@@H]2c2cccc(F)c2)c1 [Example 45] | > 1610 |
| CC(C)CC(O)C#Cc1cncc([C@H]2NC(=O)O[C@@H]2c2cccc(F)c2)c1 (some centres unmarked) [Example 25] | 45.2 |
| CCCCC#Cc1cncc([C@H]2NC(=O)O[C@@H]2c2cccc(F)c2)c1 [Example 3] | 2.2 |
| O=C1N[C@H](c2cncc(C#CCCOCC(F)(F)F)c2)[C@@H](c2cccc(F)c2)O1 [Example 67] | 88.6 |

| Compound | EC50 [nM] |
| --- | --- |
| O=C1N[C@H](c2cncc(C#CCC3CCC3)c2)[C@@H](c2cccc(F)c2)O1 [Example 1, (4R,5R)-4-(5-(3-Cyclobutylprop-1-yn-1-yl)pyridin-3-yl)-5-(3-fluorophenyl)oxazolidin-2-one] | 1.7 |
| O=C1N[C@H](c2cncc(C#CC(O)CC3CC3)c2)[C@@H](c2cccc(F)c2)O1 (single isomer, unassigned) [Example 74] | 27.4 |
| O=C1N[C@H](c2cncc(C#CCC3CCCO3)c2)[C@@H](c2cccc(F)c2)O1 (some centres unmarked) [Example 63] | 12.4 |
| CC1(C)CC1C(O)C#Cc1cncc([C@H]2NC(=O)O[C@@H]2c2cccc(F)c2)c1 (some centres unmarked) [Example 77] | > 1610 |
| O=C1N[C@H](c2cncc(C#CC(O)C3CCC3)c2)[C@@H](c2cccc(F)c2)O1 (some centres unmarked) [Example 14] | 16.6 |
| O=C1N[C@H](c2cncc(C#CCN3CCCCC3)c2)[C@@H](c2cccc(F)c2)O1 [Example 41] | 730 |
| O=C1N[C@H](c2cncc(C#CC3(O)CCCCC3)c2)[C@@H](c2cccc(F)c2)O1 [Example 85, (4R,5R)-5-(3-Fluorophenyl)-4-(5-((1-hydroxycyclohexyl)ethynyl)pyridin-3-yl)oxazolidin-2-one] | 1060 |
| O=C1N[C@H](c2cc(C#CC3CC(F)(F)C3)cnc2F)[C@@H](c2cccc(F)c2)O1 [Example 111, (4R,5R)-4-(5-((3,3-Difluorocyclobutyl)ethynyl)-2-fluoropyridin-3-yl)-5-(3-fluorophenyl)oxazolidin-2-one] | 104 |
| O=C1N[C@H](c2cncc(C#CCNC(=O)C(F)(F)F)c2)[C@@H](c2cccc(F)c2)O1 [Example 48] | > 1610 |
| O=C1N[C@H](c2cncc(C#CCC3(O)CCC3)c2)[C@@H](c2cccc(F)c2)O1 [Example 46] | > 1610 |
| O=C1N[C@H](c2cncc(C#CCC3CCOC3)c2)[C@@H](c2cccc(F)c2)O1 (some centres unmarked) [Example 65] | 14.7 |
| CCCC(C)C#Cc1cncc([C@H]2NC(=O)O[C@@H]2c2cccc(F)c2)c1 (some centres unmarked) [Example 23] | 43.6 |
| CCCC(O)C#Cc1cncc([C@H]2NC(=O)O[C@@H]2c2cccc(F)c2)c1 (single isomer, unassigned) [Example 22] | 32.3 |
| CC(C)C#Cc1cncc([C@H]2NC(=O)O[C@@H]2c2cccc(F)c2)c1 [Example 50] | > 3230 |
| CCC(C)(O)C#Cc1cncc([C@H]2NC(=O)O[C@@H]2c2cccc(F)c2)c1 (some centres unmarked) [Example 16] | > 3230 |
| CCCC#Cc1cncc([C@H]2NC(=O)O[C@@H]2c2cccc(F)c2)c1 [Example 6] | 5.2 |
| O=C1N[C@H](c2cncc(C#CCn3cc(Cl)cn3)c2)[C@@H](c2cccc(F)c2)O1 [Example 27] | 48.2 |
| O=C1N[C@H](c2cncc(C#CCc3ccccc3)c2)[C@@H](c2cccc(F)c2)O1 [Example 43] | > 1610 |
| O=C1N[C@H](c2ccnc(C#CC3CC(F)(F)C3)c2)[C@@H](c2ccccc2)O1 [Example 114, (4R,5R)-4-(2-((3,3-Difluorocyclobutyl)ethynyl)pyridin-4-yl)-5-phenyloxazolidin-2-one] | > 3230 |

| Compound | EC50 [nM] |
| --- | --- |
| Cc1ccn(CC#Cc2cncc([C@H]3NC(=O)O[C@@H]3c3cccc(F)c3)c2)n1 [Example 26] | 46.2 |
| O=C1N[C@H](c2cncc(C#CC3CC(F)(F)C3)c2)[C@@H](c2ccc(F)c(F)c2)O1 [Example 119, (4R,5R)-4-(5-((3,3-Difluorocyclobutyl)ethynyl)pyridin-3-yl)-5-(3,4-difluorophenyl)oxazolidin-2-one] | 21.6 |
| CC(O)CC#Cc1cncc([C@H]2NC(=O)O[C@@H]2c2cccc(F)c2)c1 (some centres unmarked) [Example 42] | > 1610 |
| COc1cccc([C@H]2OC(=O)N[C@@H]2c2cccc(C#CC3CC3)c2)c1 [Example 80, (4R,5R)-4-(3-(Cyclopropylethynyl)phenyl)-5-(3-methoxyphenyl)oxazolidin-2-one] | > 3000 |
| O=C1N[C@H](c2cncc(C#CCC3CCCCC3)c2)[C@@H](c2cccc(F)c2)O1 [Example 13] | 16.4 |
| Cc1ccnn1CC#Cc1cncc([C@H]2NC(=O)O[C@@H]2c2cccc(F)c2)c1 [Example 31] | 108 |
| O=C1N[C@H](c2cncc(C#CCC3CCOC3)c2)[C@@H](c2cccc(F)c2)O1 (some centres unmarked) [Example 64] | 20 |
| O=C1N[C@H](c2cc(C#CC3CC(F)(F)C3)ccn2)[C@@H](c2ccccc2)O1 [Example 112, (4R,5R)-4-(4-((3,3-Difluorocyclobutyl)ethynyl)pyridin-2-yl)-5-phenyloxazolidin-2-one] | > 3230 |
| CC(O)CCC#Cc1cncc([C@H]2NC(=O)O[C@@H]2c2cccc(F)c2)c1 (single isomer, unassigned) [Example 7] | 5.9 |
| CCC(O)C#Cc1cncc([C@H]2NC(=O)O[C@@H]2c2cccc(F)c2)c1 (some centres unmarked) [Example 32] | 116 |
| O=C1N[C@H](c2cncc(C#CC(O)CC3CC3)c2)[C@@H](c2cccc(F)c2)O1 (single isomer, unassigned) [Example 73] | 27.9 |
| CC(C)(O)CC#Cc1cncc([C@H]2NC(=O)O[C@@H]2c2cccc(F)c2)c1 [Example 40] | 513 |
| CCCCC(O)C#Cc1cncc([C@H]2NC(=O)O[C@@H]2c2cccc(F)c2)c1 (some centres unmarked) [Example 56] | 67 |
| Cc1cnn(CC#Cc2cncc([C@H]3NC(=O)O[C@@H]3c3cccc(F)c3)c2)c1 [Example 54] | 107 |
| O=C1N[C@H](c2cncc(C#CC3CC3)c2)[C@@H](c2cccc(Cl)c2Cl)O1 [Example 125, (4R,5R)-4-(5-(Cyclopropylethynyl)pyridin-3-yl)-5-(2,3-dichlorophenyl)oxazolidin-2-one] | 179 |
| O=C1N[C@H](c2cncc(C#CCC3CCOCC3)c2)[C@@H](c2cccc(F)c2)O1 [Example 11] | 13.6 |
| CC(C)CC#Cc1cncc([C@H]2NC(=O)O[C@@H]2c2cccc(F)c2)c1 [Example 9] | 11.4 |
| O=C1N[C@H](c2cncc(C#CCN3CC(F)(F)C3)c2)[C@@H](c2cccc(F)c2)O1 [Example 70, (4R,5R)-4-(5-(3-(3,3-Difluoroazetidin-1-yl)prop-1-yn-1-yl)pyridin-3-yl)-5-(3-fluorophenyl)oxazolidin-2-one] | 29.6 |
